Data on eleven compounds can be found in patent publication US6884792B2, “Bretylium compositions and kits and their use in preventing and treating cardiovascular conditions” (priority 1999, dated 2005).

For one data set, the system named is Mongrel dogs. As to the kind of experiment: Oral bretylium-tosylate/facilitating-anion combinations: VFT and EVRP. Format: in vivo. The following applies: dog; 50 milliamps. As to the method: A catheter electrode was passed under fluoroscopic observation via the jugular vein into the apex of the right ventricle and screwed into place in the myocardium of the right ventricle. […] After the control VFT and EVRP were measured, the compositions were orally administered in capsule form via a stomach tube. […] The VFT and EVRP were measured at various times following this administration. […] See also FIGS. 8-10.

The test system of data set [1] is dogs. In words: VFT 1-5 hours after injection of bretylium tosylate and/or β-receptor blockers. Format: in vivo, dog.
Method: The increase in efficacy of the bretylium cation afforded by administering the bretylium cation in combination with a β-receptor blocker was tested by administering via injection bretylium tosylate alone, various β-receptor blockers alone, and various combinations of bretylium tosylate and β-receptor blockers to dogs, and then measuring the ventricular fibrillation threshold of the dogs 1-5 hours after drug administration.
The test system of data set [2] is mongrel dog. As to the method:
At time zero, a 5 milliamp stimulus was applied and a ventricular fibrillation threshold (VFT) was established.
At 1 hour and 20 minutes, the dog was given a 50 mg/kg dose of bretylium lauryl sulfate salt.
At three hours and twenty minutes, the dog's left anterior coronary artery was ligated to attempt to induce ventricular fibrillation by coronary occlusion.
Next, at three hours and thirty-seven minutes, 50 milliamps (the maximum current) was applied in an attempt to induce ventricular fibrillation and/or atrial fibrillation.

Another data set deals with dog. The following applies: orally administered to a dog.
Data set [3] deals with mongrel dog. As to the kind of experiment: Electrically induced atrial fibrillation, intravenous administration. Format: in vivo. The following applies: single intravenous dose, 15 mg bretylium tosylate per kg.
Method: This electrode catheter delivered stimulating shocks consisting of a train of square wave pulses of 1 msec duration at 60 Hz. Atrial fibrillation was induced at a current of 6 milliamps.
Defibrillation was first attempted using a single dose of bretylium tosylate (Arnar-Stone, McGaw Park, Ill.) administered intravenously (the dose corresponded to 15 mg of bretylium tosylate per kg of the recipient).
Subsequently, a composition containing bretylium tosylate and aspirin was administered intravenously into the jugular vein. This composition was prepared using a commercially available tablet containing aspirin. The aspirin tablet was dissolved in warm water and filtered through a fine surgical gauze pad (to remove the bulk of the binder in the tablet). The resulting aspirin filtrate was then combined with an approximately equimolar amount of bretylium tosylate dissolved in 5% dextrose in water. Approximately 20 ml of this aqueous solution was injected into jugular vein of the atrially fibrillating dog (this dose corresponded to roughly 15 mg of bretylium tosylate per kg of the recipient and 6.5 mg of aspirin per Kg recipient).
The procedure of data set [4]:
To measure the partition coefficient for a facilitating anion in the presence of a bretylium compound, an acidified aqueous solution of the bretylium compound with a non-facilitating anion (e.g., tosylate, bromide or chloride) is first prepared. Sodium bicarbonate and a salt comprising the facilitating anion to be tested are then added to the aqueous solution. The salt comprising the facilitating anion should be added in an amount sufficient to provide about a 1:1 molar ratio of the facilitating anion to the bretylium cation. The sodium bicarbonate is provided in an amount sufficient to produce a preselected pH value. An equal volume of n-octanol is then added to this solution. The solution is shaken. The mixture is centrifuged to separate an octanol-rich layer and an aqueous-rich layer, and the distribution ratio of the bretylium cation between the octanol-rich phase and the aqueous-rich phase (that is, the partition coefficient) may be measured. This analytical approach is believed to provide a suitable model for evaluating the bioavailability of the bretylium cation when utilized with a facilitating anion.
Several formulations of the present invention were tested using an n-octanol/aqueous buffer system to measure the partition coefficients for the bretylium cation in the presence of the facilitating anions of those formulations. An acidified aqueous solution of bretylium tosylate was first prepared. Sodium bicarbonate and a salt comprising the facilitating anion to be tested was then added to the aqueous solution. The salt comprising the facilitating anion was added in an amount sufficient to provide a 1:1 molar ratio of the facilitating anion to the bretylium cation. The sodium bicarbonate was provided in an amount sufficient to produce one of 4 preselected pH values. An equal volume of n-octanol was then added to this solution and the solution was shaken. The mixture was centrifuged to separate an octanol layer and an aqueous layer, and the distribution ratio of the bretylium cation between the octanol-rich phase and the aqueous-rich phase (that is, the partition coefficient) was measured. This analytical approach provides a suitable model for evaluating the bioavailability of the bretylium cation in the compositions tested.
The aqueous bretylium tosylate solutions used in the procedure were prepared in the following manner. An amount of one of the buffer solutions described below (3.0 ml when the most acidic buffer solution was used, and 4.0 ml when the other 3 buffer solutions were used) was transferred to a beaker or an Erlenmeyer flask by pipette. To the buffer solution was added 50 mg of bretylium tosylate per ml of buffer solution and an equimolar amount of the sodium salt of the facilitating anion. For example, where the facilitating anion tested was di(2-ethylhexyl)sulfosuccinate, 54 mg of sodium di(2-ethylhexyl)sulfosuccinate was added per ml of buffer solution. […] Test solutions comprising other facilitating agents were prepared in a similar manner.
Each of the pharmaceutical compositions was tested using each of the following sodium bicarbonate buffer systems:
The first buffer solution was prepared by dissolving 1.0 g of sodium bicarbonate in 100 ml of 0.95M HCl. A pH meter equipped with a conventional glass electrode and a calomel reference electrode was used to measure the nominal pH of this solution and the other 3 buffer solutions.
The second buffer solution was prepared by dissolving 7.5 g of sodium bicarbonate in 100 ml of 0.95M HCl.
The third buffer solution was prepared by dissolving 8.0 g of sodium bicarbonate in 100 ml of 0.95M HCl.

Data set [5] relates to dogs.
The conditions of data set [6]: water/octanol, relative to chloride; cited from earlier work.
Where [7] appears, read: intravenous, about 20 mg bretylium tosylate per kg.

Where a name gives a salt, the structure may show the parent alone. Read-outs that look alike come from different tables or passages of the source.

`CC[N+](C)(C)Cc1ccccc1Br.O=C([O-])c1ccccc1O` [Bretylium Salicylate, bretylium salicylate]: in the data set on Mongrel dogs, the “ventricular or atrial fibrillation despite maximum electrical stimulation” value is “did not occur”.
With `CC(C)NCC(O)COc1ccc(CC(N)=O)cc1` (centres unmarked) [atenolol], the “Mean % Increase in VFT” value in the data set with dogs [1] (per kg: 0.05 mg atenolol, no bretylium, 1-5 hours) is on record as 330% ± 210%.
On to `CCCCCCCCCCCCOS(=O)(=O)[O-].CC[N+](C)(C)Cc1ccccc1Br` [bretylium lauryl sulfate salt, bretylium lauryl sulfate], for which, in the data set with mongrel dog [2] (FIG. 8 legend), the “rhythm 46 minutes after administration despite attempts to reinitiate atrial fibrillation with electrical stimulation” value is listed as “maintained a normal sinus rhythm”. Also, the “fibrillation induced by electrical stimulation at 50 milliamps (maximum current)” value in the data set on mongrel dog [2] (at 3 h 37 min of experiment) is reported as “No fibrillation (atrial or ventricular) could be induced”. For the same compound, in the data set on mongrel dog [2] (dog, in vivo, 50 mg/kg), the “time after dose at which atrial fibrillation ceased entirely” value came to 19 min and the “time after dose to periods of normal sinus rhythm” value is “Approximately 18 minutes”. For the same compound, the “ventricular fibrillation after release of the coronary occlusion” value in the data set with mongrel dog [2] (following two minutes after release at 3 h 35 min) was “no ventricular fibrillation was observed”. Besides, the “ventricular fibrillation on ligation of left anterior coronary artery” value in the data set on mongrel dog [2] (ligated at 3 h 20 min of experiment, 2 h after 50 mg/kg dose) is reported as “No ventricular fibrillation was observed”. Moreover, the antifibrillatory activity result in the data set with dog is given as “active antifibrilant”. Moreover, in the data set on Mongrel dogs, the “ventricular or atrial fibrillation despite maximum electrical stimulation” value is “did not occur”.
On to `CC[N+](C)(C)Cc1ccccc1Br.Cc1ccc(S(=O)(=O)[O-])cc1` [bretylium tosylate, 2-bromobenzylethyldimethylammonium p-toluenesulfonate, reference compound], for which the “Mean % Increase in VFT” value in the data set with dogs [1] (per kg: 20 mg bretylium tosylate, no β-receptor blocker, 1-5 hours after administration) was 100-200% (no standard. The “effect on atrial fibrillation” value in the data set on mongrel dog [3] is “No effect”. The “PARTITION COEFFICIENT” value in data set [4] (pH 0.8) was 0.33; in data set [4] (pH 2.1), 0.48; in data set [4] (pH 5.5), 0.45; in data set [4] (pH 7.7), 0.49. In addition, the “time after administration at which a substantial increase in ventricular fibrillation threshold began” value in the data set on dogs [5] (setting [7]) was in the range of 12 to 15 min. Moreover, the “time after administration of peak increase in ventricular fibrillation threshold” value in the data set with dogs [5] (setting [7]) is recorded as “About 3 hours”.
As for `CCCCC(CC)COP(=O)(O)OCC(CC)CCCC` (centres unmarked) [di(2-ethylhexyl)phosphate], the “PARTITION COEFFICIENT” value in data set [4] (pH 0.8) is 0.35; in data set [4] (pH 2.2) it was 0.49; in data set [4] (pH 5.5), 0.51; in data set [4] (pH 7.7) it was 2.33.
For `CCCCC(CC)COC(=O)CC(C(=O)OCC(CC)CCCC)S(=O)(=O)O` (centres unmarked) [di(2-ethylhexyl)sulfosuccinate], the “PARTITION COEFFICIENT” value came out at 4.16 in data set [4] (pH 5.5), 4.94 in data set [4] (pH 5.6), 5.03 in data set [4] (pH 7) and 3.61 in data set [4] (pH 7.7).
For the compound `COC(=O)CCc1ccc(OCC(O)CNC(C)C)cc1` (centres unmarked) [esmolol], the “Mean % Increase in VFT” value in the data set on dogs [1] (per kg: 25 to 300 μg esmolol, no bretylium, 1-5 hours) is listed as “no significant increase”.
In the case of `COCCc1ccc(OCC(O)CNC(C)C)cc1` (centres unmarked) [metoprolol], in the data set with dogs [1] (per kg: 0.05 mg metoprolol, no bretylium, 1-5 hours), the “Mean % Increase in VFT” value is 96% ± 70%.
`CC(C)NCC(O)COc1cccc2ccccc12` (centres unmarked) [propranolol]: the “Mean % Increase in VFT” value with dogs [1] (per kg: 0.075 mg propranolol, no bretylium, 1-5 hours) is 110% ± 40%. For the same compound, in the data set on dogs [5] (intravenous propranolol alone, 0.05 to 0.5 mg/kg), the “increase in the ventricular fibrillation threshold” value is 110%±40%.
As to `Cc1ccc(S(=O)(=O)O)cc1` [tosylate anion, tosylate], the “organic/aqueous phase distribution constant (K)” value in data set [6] is “about 320”.
For lauryl sulfate, the “PARTITION COEFFICIENT” value came out at 1.91 in data set [4] (n-octanol/buffer, nominal pH 0.8, 1:1 molar facilitating anion:bretylium tosylate); 3.54 in data set [4] (n-octanol/buffer, nominal pH 2.2, 1:1 molar facilitating anion:bretylium tosylate); 3.71 in data set [4] (n-octanol/buffer, nominal pH 5.5, 1:1 molar facilitating anion:bretylium tosylate); 4.01 in data set [4] (n-octanol/buffer, nominal pH 7.0, 1:1 molar facilitating anion:bretylium tosylate).
